The source made the active and inactive calls. The calls are words filed in the database; no cut-off is given here. Positions of bridges follow the written chain, without caps; N, C: chain ends. Non-standard residues stand in square brackets, D forms with d. Residues, ends and D or L forms follow the SMILES beside them. *: point of attachment. NH(3,5-(CF3)2-benzyl) = FC(F)(F)c1cc(CN*)cc(C(F)(F)F)c1; Nle = CCCC[C@H](N)C(=O)O
Columns and labels:
[1] = biological target: T1, Delta-type opioid receptor (Homo sapiens, UniProt P41143); experiment: Displacement of [3H]DPDPE from human delta opioid receptor expressed in HN9.10 cells; type: cell-based
Mu-type opioid receptor [2] = biological target: T2, Mu-type opioid receptor (Rattus norvegicus, UniProt P33535); experiment: Displacement of [3H]DAMGO from rat mu opioid receptor expressed in HN9.10 cells; type: cell-based
Substance-P receptor [3] = biological target: Substance-P receptor (Homo sapiens, UniProt P25103); experiment: Displacement of [3H]substance P from human NK1 receptor expressed in CHO cell membranes
Substance-P receptor [4] = biological target: Substance-P receptor (Rattus norvegicus, UniProt P14600); experiment: Displacement of [3H]substance P from rat NK1 receptor expressed in CHO cell membranes; set-up: species or system Membrane
[5] = biological target: T1, Delta-type opioid receptor; experiment: Agonist activity at human delta opioid receptor expressed in HN9.10 cells assessed as stimulation of [35S]GTPgammaS binding; type: functional, cell-based
[6] = biological target: T1, Delta-type opioid receptor; experiment: Agonist activity at human delta opioid receptor expressed in HN9.10 cells assessed as stimulation of [35S]GTPgammaS binding relative to untreated basal control; type: functional, cell-based
Mu-type opioid receptor [7] = biological target: T2, Mu-type opioid receptor; experiment: Agonist activity at rat mu opioid receptor expressed in HN9.10 cells assessed as stimulation of [35S]GTPgammaS binding; type: functional, cell-based
[8] = biological target: Mu-type opioid receptor (Rattus norvegicus) (UniProt P33535); experiment: Agonist activity at rat mu opioid receptor expressed in HN9.10 cells assessed as stimulation of [35S]GTPgammaS binding relative to untreated basal control; type: functional, cell-based
[9] = biological target: Mu-type opioid receptor (Cavia porcellus) (UniProt P97266); experiment: Agonist activity at mu opioid receptor in guinea pig ileum assessed as inhibition of electrically-stimulated contraction at 1 uM; type: functional, tissue-based
[10] = biological target: Mu-type opioid receptor (Cavia porcellus) (UniProt P97266); experiment: Antagonist activity at mu opioid receptor in guinea pig ileum assessed as effect on electrically-stimulated contraction at 1 uM; type: functional, tissue-based
[11] = Half life in rat plasma at 37 degC; type: ADME, cell-free
[12] = Metabolic stability in rat plasma assessed as parent compound remaining at 37 degC after 24 hrs; type: ADME, cell-free; conditions: read-out: Stability
[13] = biological target: Substance-P receptor (Cavia porcellus) (UniProt P30547); conditions: Ileum
Description: Antagonist activity at NK1 receptor in guinea pig ileum assessed as inhibition of substance P-induced muscle contraction in presence of naloxone

Mu-type opioid receptor [14] = biological target: Mu-type opioid receptor (Cavia porcellus, UniProt P97266); experiment: Agonist activity at mu opioid receptor in guinea pig ileum assessed as inhibition of electrically-stimulated contraction; type: functional, tissue-based
[15] = biological target: Delta-type opioid receptor (Mus musculus, UniProt P32300); experiment: Agonist activity at delta opioid receptor in mouse vas deferens assessed as inhibition of electrically-stimulated contraction; type: functional, tissue-based
Delta-type opioid receptor (Mus musculus, UniProt P32300), sequence (P32300 whole entry): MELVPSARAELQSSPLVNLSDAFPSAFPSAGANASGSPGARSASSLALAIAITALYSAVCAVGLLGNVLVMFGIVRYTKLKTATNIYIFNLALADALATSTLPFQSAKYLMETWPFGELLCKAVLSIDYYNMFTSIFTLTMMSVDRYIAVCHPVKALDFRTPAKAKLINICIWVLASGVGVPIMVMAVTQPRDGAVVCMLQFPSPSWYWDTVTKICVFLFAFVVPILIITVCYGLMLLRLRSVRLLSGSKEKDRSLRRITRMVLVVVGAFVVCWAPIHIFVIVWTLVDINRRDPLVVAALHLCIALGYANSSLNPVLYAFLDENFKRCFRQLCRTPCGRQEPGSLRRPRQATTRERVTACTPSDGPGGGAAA

T2 sequence (P33535 whole entry): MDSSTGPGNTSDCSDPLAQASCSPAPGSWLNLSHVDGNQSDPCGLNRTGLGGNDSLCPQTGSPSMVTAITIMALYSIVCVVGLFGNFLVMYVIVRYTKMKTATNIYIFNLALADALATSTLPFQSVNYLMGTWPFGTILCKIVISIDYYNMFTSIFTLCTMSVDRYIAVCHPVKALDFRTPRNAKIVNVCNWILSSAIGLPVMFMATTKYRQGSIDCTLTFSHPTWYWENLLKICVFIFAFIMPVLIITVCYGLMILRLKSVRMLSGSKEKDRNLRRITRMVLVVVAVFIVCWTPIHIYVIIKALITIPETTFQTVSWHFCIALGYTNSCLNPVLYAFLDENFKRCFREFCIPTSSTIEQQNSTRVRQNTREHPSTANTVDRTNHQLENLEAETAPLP
Substance-P receptor (Rattus norvegicus, UniProt P14600), sequence (P14600 whole entry): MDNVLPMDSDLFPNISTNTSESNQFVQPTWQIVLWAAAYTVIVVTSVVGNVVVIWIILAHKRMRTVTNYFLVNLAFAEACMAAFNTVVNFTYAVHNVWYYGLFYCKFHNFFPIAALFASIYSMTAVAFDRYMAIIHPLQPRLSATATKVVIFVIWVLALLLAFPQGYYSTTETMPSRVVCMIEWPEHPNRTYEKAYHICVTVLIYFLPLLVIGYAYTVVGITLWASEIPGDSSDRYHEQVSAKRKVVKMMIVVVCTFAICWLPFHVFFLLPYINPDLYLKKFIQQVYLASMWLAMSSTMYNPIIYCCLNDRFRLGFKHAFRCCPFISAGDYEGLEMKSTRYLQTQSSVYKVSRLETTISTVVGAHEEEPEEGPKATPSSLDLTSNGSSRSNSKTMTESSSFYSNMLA
Mu-type opioid receptor (Cavia porcellus), sequence (P97266 whole entry): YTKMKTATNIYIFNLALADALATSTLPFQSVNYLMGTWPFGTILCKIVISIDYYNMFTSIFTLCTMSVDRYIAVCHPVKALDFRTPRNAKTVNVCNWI
T1 sequence (P41143 whole entry): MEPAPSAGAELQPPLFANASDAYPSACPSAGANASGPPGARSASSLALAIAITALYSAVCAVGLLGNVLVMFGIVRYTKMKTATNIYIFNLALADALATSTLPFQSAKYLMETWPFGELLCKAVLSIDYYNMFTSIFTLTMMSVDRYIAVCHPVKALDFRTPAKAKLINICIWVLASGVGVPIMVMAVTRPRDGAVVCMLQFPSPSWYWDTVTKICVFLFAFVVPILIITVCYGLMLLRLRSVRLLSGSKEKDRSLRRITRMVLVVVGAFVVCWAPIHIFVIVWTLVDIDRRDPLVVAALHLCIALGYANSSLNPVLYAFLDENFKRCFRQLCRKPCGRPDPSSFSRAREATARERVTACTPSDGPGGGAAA
Mu-type opioid receptor (Rattus norvegicus), sequence (P33535 whole entry): as the sequence (P33535 whole entry) above
Mu-type opioid receptor (Cavia porcellus, UniProt P97266), sequence (P97266 whole entry): as the sequence (P97266 whole entry) above
Substance-P receptor (Cavia porcellus), sequence (P30547 whole entry): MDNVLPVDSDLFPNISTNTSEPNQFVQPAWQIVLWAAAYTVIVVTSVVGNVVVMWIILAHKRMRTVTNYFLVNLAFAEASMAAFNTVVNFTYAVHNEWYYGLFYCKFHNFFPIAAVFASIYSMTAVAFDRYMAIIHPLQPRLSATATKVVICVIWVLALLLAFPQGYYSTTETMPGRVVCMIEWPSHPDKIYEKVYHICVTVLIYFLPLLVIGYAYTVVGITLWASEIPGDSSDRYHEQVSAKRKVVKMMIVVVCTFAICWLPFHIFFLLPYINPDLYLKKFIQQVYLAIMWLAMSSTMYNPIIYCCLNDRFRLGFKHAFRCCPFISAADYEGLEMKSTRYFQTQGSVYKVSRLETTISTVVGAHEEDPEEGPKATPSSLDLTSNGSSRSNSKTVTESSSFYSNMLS
Substance-P receptor (Homo sapiens, UniProt P25103), sequence (P25103 whole entry): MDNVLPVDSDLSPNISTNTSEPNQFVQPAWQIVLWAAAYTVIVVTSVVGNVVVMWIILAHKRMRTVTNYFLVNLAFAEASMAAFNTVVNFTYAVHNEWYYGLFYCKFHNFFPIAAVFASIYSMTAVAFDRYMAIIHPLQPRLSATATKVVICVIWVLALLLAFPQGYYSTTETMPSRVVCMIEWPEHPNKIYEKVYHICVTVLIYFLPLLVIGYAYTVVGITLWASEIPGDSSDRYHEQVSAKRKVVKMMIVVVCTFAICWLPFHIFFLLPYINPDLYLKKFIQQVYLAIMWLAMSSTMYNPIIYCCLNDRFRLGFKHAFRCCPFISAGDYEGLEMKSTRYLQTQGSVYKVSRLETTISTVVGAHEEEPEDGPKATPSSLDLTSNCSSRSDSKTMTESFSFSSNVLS

Compound | IC50 [1] [nM] | IC50 (Mu-type opioid receptor [2]) [nM] | IC50 (Substance-P receptor [3]) [nM] | IC50 (Substance-P receptor [4]) [nM] | EC50 ([5]; read-out: EC50) [nM] | Emax [6] [%] | EC50 (Mu-type opioid receptor [7]) [nM] | Emax [8] [%] | inhibition [9] [%] | Activity [10] | half-life [11] [h] | remaining at 24 h [12] [%] | Ke [13] [nM] | IC50 (Mu-type opioid receptor [14]) [nM] | IC50 [15] [nM] | EC50 ([5]; read-out: pEC50 (converted)) [nM]
CCCC[C@@H]1NC(=O)[C@H](Cc2ccccc2)NC(=O)CNC(=O)[C@H](NC(=O)[C@@H](N)Cc2ccc(O)cc2)CSSC[C@H](C(=O)N[C@@H](Cc2c[nH]c3ccccc23)C(=O)NCc2cc(C(F)(F)F)cc(C(F)(F)F)c2)NC(=O)[C@@H]2CCCN2C1=O (H-Y[dC]GF[Nle]P[dC]W-{NH(3,5-(CF3)2-benzyl)}; disulfide 2-7) | 117 | 316 | 0.49 | 22.4 | 13 | 110 | 22 | 9 | 3 | Active | > 6 | 70 | 12 | – | – | –
CC(C)C[C@H](NC(=O)[C@@H]1CCCN1C(=O)[C@H]1CSSC[C@@H](NC(=O)[C@@H](N)Cc2ccc(O)cc2)C(=O)NCC(=O)N[C@@H](Cc2ccccc2)C(=O)N1)C(=O)N[C@@H](Cc1c[nH]c2ccccc12)C(=O)NCc1cc(C(F)(F)F)cc(C(F)(F)F)c1 | 15.5 | 115 | – | 138 | – | – | – | – | – | – | – | – | – | – | – | –
CSCC[C@H](NC(=O)[C@H](Cc1ccccc1)NC(=O)CNC(=O)[C@@H](C)NC(=O)[C@@H](N)Cc1ccc(O)cc1)C(N)=O | – | – | – | – | – | – | – | – | – | – | – | – | – | 45 | 36 | –
CC(C)C[C@H](NC(=O)[C@@H]1CCCN1C(=O)[C@@H]1CSSC[C@@H](NC(=O)[C@@H](N)Cc2ccc(O)cc2)C(=O)NCC(=O)N[C@@H](Cc2ccccc2)C(=O)N1)C(=O)N[C@@H](Cc1c[nH]c2ccccc12)C(=O)NCc1cc(C(F)(F)F)cc(C(F)(F)F)c1 | 22.4 | 427 | – | 1780 | – | – | – | – | 10 | Active | – | – | – | – | – | –
CCCC[C@@H]1NC(=O)[C@H](Cc2ccccc2)NC(=O)CNC(=O)[C@H](NC(=O)[C@@H](N)Cc2ccc(O)cc2)CSSC[C@@H](C(=O)N[C@@H](Cc2c[nH]c3ccccc23)C(=O)NCc2cc(C(F)(F)F)cc(C(F)(F)F)c2)NC(=O)[C@@H]2CCCN2C1=O (H-Y[dC]GF[Nle]PCW-{NH(3,5-(CF3)2-benzyl)}; disulfide 2-7) | 2.69 | 166 | 0.186 | 95.5 | – | 11 | 36 | 36 | – | – | > 6 | – | 2.2 | 1000 | – | 0.0174
